The EC50 is the concentration needed to bring the measured effect to its halfway point. Usually IC50 stands for the concentration that inhibits the measured activity by half. A higher IC50 goes with weaker potency.

The values that follow come from patent publication US7183324B2, “2,3,4-substituted cyclopentanones as therapeutic agents” (Allergan, Inc., priority 2004, dated 2007).

One data set has as its target T1, hEP4/Gqs5 (Homo sapiens, UniProt P35408).
T1 construct: expressed in transfected cells; host or cells: HEK-293 (EBNA)
The data set can be described thus: FLIPR calcium signal, hEP4/Gqs5. Format: cell-based. Particulars: HEK-293 (EBNA) cells, read-out: FUNCTIONAL EC50 HEP4. The method, then:
(§1) HEK-293 (EBNA) cells, stably expressing one type or subtype of recombinant human prostaglandin receptors (prostaglandin receptors expressed: hDP/Gqs5; hEP1; hEP2/Gqs5; hEP3A/Gqi5; hEP4/Gqs5; hFP; hIP; hTP), were cultured in 100 mm culture dishes in high-glucose DMEM medium containing 10% fetal bovine serum, 2 mM 1-glutamine, 250 μg/ml geneticin (G418) and 200 μg/ml hygromycin B as selection markers, and 100 units/ml penicillin G, 100 μg/ml streptomycin and 0.25 μg/ml amphotericin B. • (b) Calcium Signal Studies on the FLIPR™
(§2) Cells were seeded at a density of 5×10^4 cells per well in Biocoat® Poly-D-lysine-coated black-wall, clear-bottom 96-well plates (Becton-Dickinson) and allowed to attach overnight in an incubator at 37° C. Cells were then washed two times with HBSS-HEPES buffer (Hanks Balanced Salt Solution without bicarbonate and phenol red, 20 mM HEPES, pH 7.4) using a Denley Cellwash plate washer (Labsystems). After 45 minutes of dye-loading in the dark, using the calcium-sensitive dye Fluo-4 AM at a final concentration of 2 μM, plates were washed four times with HBSS-HEPES buffer to remove excess dye leaving 100 μl in each well. Plates were re-equilibrated to 37° C. for a few minutes.
(§3) Cells were excited with an Argon laser at 488 nm, and emission was measured through a 510–570 nm bandwidth emission filter (FLIPR™, Molecular Devices, Sunnyvale, Calif.). Drug solution was added in a 50 μl volume to each well to give the desired final concentration. The peak increase in fluorescence intensity was recorded for each well. On each plate, four wells each served as negative (HBSS-HEPES buffer) and positive controls (standard agonists: BW245C (hDP); PGE2 (hEP1; hEP2/Gqs5; hEP3A/Gqi5; hEP4/Gqs5); PGF2α (hFP); carbacyclin (hIP); U46619 (hTP), depending on receptor). The peak fluorescence change in each drug-containing well was then expressed relative to the controls.
(§4) Compounds were tested in a high-throughput (HTS) or concentration-response (CoRe) format. In the HTS format, forty-four compounds per plate were examined in duplicates at a concentration of 10^−5 M. To generate concentration-response curves, four compounds per plate were tested in duplicates in a concentration range between 10^−5 and 10^−11 M. The duplicate values were averaged. In either, HTS or CoRe format each compound was tested on at least 3 separate plates using cells from different passages to give an n≧3.

Another data set deals with T2, hTP (Homo sapiens, UniProt P21731).
T2 construct: expressed in transfected cells; host or cells: HEK-293 (EBNA)
T2 sequence (P21731 1-343): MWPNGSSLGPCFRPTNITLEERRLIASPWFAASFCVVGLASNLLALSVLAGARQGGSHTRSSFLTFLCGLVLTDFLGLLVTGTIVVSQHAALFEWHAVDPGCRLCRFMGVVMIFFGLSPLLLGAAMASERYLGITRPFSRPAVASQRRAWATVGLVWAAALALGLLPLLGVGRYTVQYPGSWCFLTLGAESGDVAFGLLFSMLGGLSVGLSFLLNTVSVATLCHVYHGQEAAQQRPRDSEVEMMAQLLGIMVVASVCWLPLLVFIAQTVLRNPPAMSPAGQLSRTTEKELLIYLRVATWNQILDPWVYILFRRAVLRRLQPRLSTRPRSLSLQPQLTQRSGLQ
The data set can be described thus: FLIPR calcium signal, hTP. The data set is classed as cell-based. The settings on record: HEK-293 (EBNA) cells, read-out: FUNCTIONAL EC50 HTP. The method, then:
as §1, §2, §3, §4

The target in another data set is T3, HEP4 (Homo sapiens, UniProt P35408).
T3 construct: expressed in transfected cells; host or cells: HEK-293
T3 sequence (P35408 whole entry): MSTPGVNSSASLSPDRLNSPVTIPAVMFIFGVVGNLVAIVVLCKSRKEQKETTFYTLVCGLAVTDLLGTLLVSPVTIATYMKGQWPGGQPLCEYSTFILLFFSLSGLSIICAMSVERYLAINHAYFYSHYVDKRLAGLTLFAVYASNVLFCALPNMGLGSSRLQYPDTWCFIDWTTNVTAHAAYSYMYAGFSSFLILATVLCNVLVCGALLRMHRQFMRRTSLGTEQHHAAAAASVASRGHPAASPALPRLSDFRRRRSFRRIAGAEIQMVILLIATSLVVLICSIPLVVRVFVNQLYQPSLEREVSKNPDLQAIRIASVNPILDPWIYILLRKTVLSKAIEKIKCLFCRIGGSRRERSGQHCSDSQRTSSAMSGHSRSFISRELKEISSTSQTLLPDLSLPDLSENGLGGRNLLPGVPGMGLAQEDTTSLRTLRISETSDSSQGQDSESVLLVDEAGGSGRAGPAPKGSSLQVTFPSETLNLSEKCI
The data set is described as follows: Radioligand binding, EP4 receptor. The settings on record: [3H]PGE2 5 nM, HEK-293 membranes. As for the experimental part:
(§5) HEK-293 cells stably expressing the human or feline FP receptor, or EP1, EP2, or EP4 receptors were washed with TME buffer, scraped from the bottom of the flasks, and homogenized for 30 sec using a Brinkman PT 10/35 polytron. TME buffer was added to achieve a final 40 ml volume in the centrifuge tubes (the composition of TME is 100 mM TRIS base, 20 mM MgCl2, […]; 10N HCl is added to achieve a pH of 7.4).
(§6) The cell homogenate was centrifuged at 19000 r.p.m. for 20 min at 4° C. using a Beckman Ti-60 rotor. The resultant pellet was resuspended in TME buffer to give a final 1 mg/ml protein concentration, as determined by Biorad assay. Radioligand binding competition assays vs. [^3H-]17-phenyl PGF2α (5 nM) were performed in a 100 μl volume for 60 min. Binding reactions were started by adding plasma membrane fraction. The reaction was terminated by the addition of 4 ml ice-cold TRIS-HCl buffer and rapid filtration through glass fiber GF/B filters using a Brandel cell harvester. The filters were washed 3 times with ice-cold buffer and oven dried for one hour. Non-specific binding was determined with 10 uM unlabeled 17-phenyl PGF2α.
(§7) [^3H-] PGE2 (5 nM; specific activity 180 Ci mmol) was used as the radioligand for EP receptors. Binding studies employing EP1, EP2, EP3, EP4 were performed in duplicate in at least three separate experiments. A 200 μl assay volume was used. Incubations were for 60 min at 25° C. and were terminated by the addition of 4 ml of ice-cold 50 mM TRIS-HCl, followed by rapid filtration through Whatman GF/B filters and three additional 4 ml washes in a cell harvester (Brandel). Non-specific binding determined with 10^−5M of unlabeled PGE2.

For the next data set, the target named is T4, hEP3A/Gqi5 (Homo sapiens, UniProt P43115).
T4 construct: expressed in transfected cells; host or cells: HEK-293 (EBNA)
T4 sequence (P43115 1-390): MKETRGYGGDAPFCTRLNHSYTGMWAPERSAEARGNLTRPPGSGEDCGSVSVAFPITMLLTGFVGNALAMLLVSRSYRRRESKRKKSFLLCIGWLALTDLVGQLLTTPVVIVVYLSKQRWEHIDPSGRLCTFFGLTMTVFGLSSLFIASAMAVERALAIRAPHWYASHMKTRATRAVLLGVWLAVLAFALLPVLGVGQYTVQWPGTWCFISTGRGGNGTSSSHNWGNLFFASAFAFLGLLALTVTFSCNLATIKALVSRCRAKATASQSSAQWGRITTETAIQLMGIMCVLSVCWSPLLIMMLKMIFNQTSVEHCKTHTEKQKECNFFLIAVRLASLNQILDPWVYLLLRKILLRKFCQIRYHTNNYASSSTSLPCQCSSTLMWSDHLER
The data set can be described thus: FLIPR calcium signal, hEP3A/Gqi5. The data set is classed as cell-based. Particulars: HEK-293 (EBNA) cells, read-out: FUNCTIONAL EC50 HEP3A. The method, then:
as §1, §2, §3, §4

A further data set concerns the target T5, HEP3D (Homo sapiens, UniProt P43115).
T5 sequence (P43115 1-374 isoform P43115-4): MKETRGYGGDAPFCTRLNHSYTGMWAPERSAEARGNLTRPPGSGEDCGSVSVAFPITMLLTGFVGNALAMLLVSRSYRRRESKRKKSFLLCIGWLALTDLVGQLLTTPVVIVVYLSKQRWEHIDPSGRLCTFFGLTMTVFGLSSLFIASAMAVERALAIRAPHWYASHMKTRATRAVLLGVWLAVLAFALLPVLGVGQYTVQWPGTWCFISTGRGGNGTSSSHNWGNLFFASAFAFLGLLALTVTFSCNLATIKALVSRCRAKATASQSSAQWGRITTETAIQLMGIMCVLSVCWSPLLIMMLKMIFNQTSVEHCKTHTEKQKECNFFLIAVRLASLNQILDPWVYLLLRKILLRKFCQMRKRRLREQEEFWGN
The data set can be described thus: Radioligand binding, EP3 receptor. The settings on record: [3H]PGE2 5 nM. As for the experimental part:
as §5, §6, §7

In the next data set the target is T6, HEP2 (Homo sapiens, UniProt P43116).
T6 construct: expressed in transfected cells; host or cells: HEK-293
T6 sequence (P43116 whole entry): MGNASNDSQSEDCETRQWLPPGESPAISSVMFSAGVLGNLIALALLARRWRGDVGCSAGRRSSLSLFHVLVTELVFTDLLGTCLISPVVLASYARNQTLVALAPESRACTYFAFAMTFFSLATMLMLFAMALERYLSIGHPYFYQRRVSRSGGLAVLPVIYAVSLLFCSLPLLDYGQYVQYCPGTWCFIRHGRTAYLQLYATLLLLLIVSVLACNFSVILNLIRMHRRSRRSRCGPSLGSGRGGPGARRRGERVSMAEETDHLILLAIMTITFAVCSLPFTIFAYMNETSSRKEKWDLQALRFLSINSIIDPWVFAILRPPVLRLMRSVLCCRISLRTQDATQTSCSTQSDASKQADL
The data set is described as follows: Radioligand binding, EP2 receptor. The settings on record: [3H]PGE2 5 nM, HEK-293 membranes. As for the experimental part:
as §5, §6, §7

Data set [1] relates to Beagle dogs. The data set can be described thus: Ocular surface hyperemia in dogs. Format: in vivo. Particulars: dog, topical, Conc. 0.03%; score: trace 0.5, mild 1, moderate 2, severe 3. As for the experimental part:
(§8) • Intraocular Pressure (IOP) Intraocular pressure studies in dogs involved pneumatonometry performed in conscious, Beagle dogs of both sexes (10–15 kg). The animals remained conscious throughout the study and were gently restrained by hand. Drugs were administered topically to one eye as a 25 μL volume drop, the other eye received 25 μL vehicle (0.1% polysorbate 80:10 mM TRIS) as a control. Proparacaine (0.1%) was used for corneal anesthesia during tonometry. Intraocular pressure was determined just before drug administration and at 2, 4 and 6 hr thereafter on each day of the 5 day study. Drug was administered immediately after the first IOP reading. • An analogous procedure was carried out with cynomolgus monkeys with measurements at 2, 4, 6, and 24 hours after a single dose. • Pupil Diameter • Dog pupil diameter was measured using an optistick (a mm ruler which included half-circle references of standard widths (mm) for reference. Gently restraining the dog by hand, pupil diameter was determined by matching a half-circle to the pupil in normal room light. In dogs with very dark pupils a specialized penlight was used, but only very briefly to avoid pupil constriction. Pupil diameter was measured at the same time as IOP and hyperemia. • Ocular Surface Hyperemia • Ocular surface hyperemia was visually assessed and scored according to a system typically used clinically.
• Ocular surface hyperemia was evaluated at the same time points as intraocular pressure measurement. It should be noted that untreated dog eyes frequently have a pink/red tone. Thus, values of trace or even mild are not necessarily out of the normal range.

The test system of data set [2] is Beagle dogs. The data set is described as follows: Intraocular pressure in dogs (pneumatonometry). The settings on record: dog, topical 25 μL drop, Conc. 0.03%, 5 day study. Format: in vivo. The method, then: as §8

T1 sequence (P35408 whole entry): as the sequence (P35408 whole entry) above

Take `CC(O)(/C=C/[C@H]1CCC(=O)[C@@H]1SCCCSCC(=O)O)CCc1ccc2ccccc2c1` (single isomer, unassigned) [drawing 33]: the EC50 at hEP4/Gqs5 is 20 nM; at hTP it was more than 10000 nM. Besides, the IC50 at HEP4 was 200 nM.
`CC(O)(/C=C/[C@H]1CCC(=O)[C@@H]1SCCCSCC(=O)O)CCc1ccc2ccccc2c1` (single isomer, unassigned) [drawing 24]: the concentration giving a half-maximal response (EC50) at hEP4/Gqs5 is 1.8 nM; at hTP it was more than 10000 nM; at hEP3A/Gqi5, more than 10000 nM. This compound also came in with an IC50 on HEP4 of 96 nM.
With `O=C(O)CSCCCS[C@H]1C(=O)CC[C@@H]1/C=C/C(O)Cc1ccccc1` (single isomer, unassigned) [drawing 48], the EC50 at hTP and at hEP3A/Gqi5 was more than 10000 nM each time. Besides, the IC50 on HEP4 is 11 nM; at HEP3D, more than 10000 nM.
As to `COC(=O)CSCCCS[C@H]1C(=O)CC[C@@H]1/C=C/C(O)CCc1cc2ccccc2s1` (stereo partly drawn) [drawing 28, {3-[(1R,2R)-2-((E)-5-Benzo[b]thiophen-2-yl-3-hydroxy-pent-1-enyl)-5-oxo-cyclopentylsulfanyl]-propylsulfanyl}-acetic acid methyl ester], the EC50 at hEP4/Gqs5 is 11 nM. The IC50 at HEP4 was 300 nM; at HEP2, more than 10000 nM.
For the compound `O=C(O)CSCCCS[C@H]1C(=O)CC[C@@H]1/C=C/C(O)CCc1cc2ccccc2s1` (stereo partly drawn) [drawing 25, {3-[(1R,2R)-2-((E)-5-Benzo[b]thiophen-2-yl-3-hydroxy-pent-1-enyl)-5-oxo-cyclopentylsulfanyl]-propylsulfanyl}-acetic acid], the EC50 at hEP4/Gqs5 was 3.7 nM; at hTP it was more than 10000 nM; at hEP3A/Gqi5, 1950 nM. The IC50 at HEP4 was 44 nM; at HEP2, more than 10000 nM; on HEP3D, more than 10000 nM.
For `O=C(O)CSCCCS[C@H]1C(=O)CC[C@@H]1/C=C/C(O)Cc1ccc2ccccc2c1` (stereo partly drawn) [{3-[(1R,2R)-2-((E)-3-Hydroxy-4-naphthalen-2-yl-but-1-enyl)-5-oxo-cyclopentylsulfanyl]-propylsulfanyl}-acetic acid], the values for the EC50 on hEP4/Gqs5, at hTP and on hEP3A/Gqi5 were 0.4 nM, more than 10000 nM and more than 10000 nM, respectively. The IC50 was 26 nM at HEP4 and more than 10000 nM on HEP3D.
In the data set with Beagle dogs [1], `CC(C)OC(=O)CSCCCS[C@H]1C(=O)C[C@@H](CO)[C@@H]1/C=C/C(O)Cc1ccccc1` (single isomer, unassigned) [Compound 150, {3-[3-Hydroxymethyl-2-(3-hydroxy-4-phenyl-but-1-enyl)-5-oxo-cyclopentylsulfanyl]-propylsulfanyl}-acetic acid isopropyl ester] returned a Max hyperemia of 0.9. In the data set on Beagle dogs [2], the “Max. ΔIOP” value is given as −5.5 mm Hg.
As to `O=C(O)CSCCCS[C@H]1C(=O)CC[C@@H]1/C=C/C(O)CCc1ccc2ccccc2c1` (single isomer, unassigned) [drawing 36], the EC50 at hEP4/Gqs5 amounted to 1 nM. For the same compound, the IC50 at HEP4 was 140 nM; at HEP2, 8100 nM.
For `O=C(O)CSCCCS[C@H]1C(=O)CC[C@@H]1/C=C/C(O)CCc1cc2ccccc2s1` (stereo partly drawn) [drawing 26, {3-[(1R,2R)-2-((E)-5-Benzo[b]thiophen-2-yl-3-hydroxy-pent-1-enyl)-5-oxo-cyclopentylsulfanyl]-propylsulfanyl}-acetic acid], the EC50 at hEP4/Gqs5 came to 2.4 nM. The results for the IC50 at HEP4, at HEP2 and at HEP3D were 45 nM, more than 10000 nM and more than 10000 nM, respectively.
For the compound `COC(=O)CSCCCS[C@H]1C(=O)CC[C@@H]1/C=C/C(O)Cc1ccccc1` (single isomer, unassigned) [drawing 46], the EC50 on hEP4/Gqs5 is 0.09 nM; at hTP, more than 10000 nM; at hEP3A/Gqi5 it was more than 10000 nM. The IC50 was 19 nM at HEP4 and more than 10000 nM on HEP3D.
